Structures are written as SMILES.

For data set [1], the system named is patients with advanced solid tumors. The settings on record: cited from earlier work.
Data set [2] shares this test system. Briefly: Phase Ib 3 + 3 dose escalation: DLT, MTD and recommended phase II dose. It counts as in vivo, human.
The subject of data set [3] is class IA PI3K paralogues (p110α, β, and δ). The settings on record: cited from earlier work.
Data set [4] relates to PTEN-deficient tumor. The note with it: buparlisib plus cisplatin; cited from earlier work.

Take `Nc1cc(C(F)(F)F)c(-c2cc(N3CCOCC3)nc(N3CCOCC3)n2)cn1` [buparlisib]: the “maximum tolerated dose (MTD) of buparlisib monotherapy” value in data set [1] is reported as 100 mg/day. The “most common adverse events” value in data set [1] (monotherapy, 83 patients, dose escalation and expansion) was “decreased appetite, diarrhea, nausea, hyperglycemia, and rash”. Further, the “patients with radiographic responses” value in data set [1] (monotherapy, among 83 patients, one confirmed, three unconfirmed) was “Four”. Also, the DLTs result is recorded as “no DLTs” in data set [2] (Group 1, DL2 buparlisib 80 mg/day, three patients); “no DLTs” in data set [2] (Group 1, DL3 buparlisib 100 mg/day, six evaluable subjects); “no DLTs” in data set [2] (Group 2, DL1 buparlisib 50 mg/day, three patients); “no DLTs” in data set [2] (Group 2, DL2 buparlisib 80 mg/day, first three patients). The DLT description entry was “Grade 3 alkaline phosphatase elevation” in data set [2] (Group 1, dose level 1, 50 mg/day, NSCLC, 50 F); “Grade 3 uncomplicated neutropenia >7 days” in data set [2] (Group 2, dose level 3, 100 mg/day, NPC, 50 M); “Grade 3 uncomplicated neutropenia with grade 2 thrombocytopenia >7 days” in data set [2] (Group 2, dose level 3, 100 mg/day, thyroid cancer, 61 F). Besides, the MTD for buparlisib is recorded as 100 mg/day in data set [2] (Group 1: carboplatin AUC 5 + paclitaxel 175 mg/m^2 day 1, 21-day cycle, pegfilgrastim) and 80 mg/day in data set [2] (Group 2: carboplatin AUC 5 day 1 + paclitaxel 80 mg/m^2 days 1, 8, 15, 28-day cycle, no growth factor). Besides, the results for the “phase II recommended dose of buparlisib” value in data set [2] (Group 1 regimen) and in data set [2] (Group 2 regimen) were 100 mg/day and 80 mg/day, respectively. Besides, the “subjects who completed cycle 1 without DLT” value in data set [2] (Group 2, DL2 buparlisib 80 mg/day, six enrolled) is reported as “five of six”. The “inhibition of class IA PI3K paralogues” value in data set [3] is reported as “potently inhibits”. In addition, the “effect of combination in PTEN-deficient xenograft” value in data set [4] was “synthetic lethality was achieved”.

The values are drawn from article PMC6698915 (Cancer chemotherapy and pharmacology, 2015).
